Reference: patent publication US20080026417A1, “ASSAYS FOR TRICHOMONAL AND OTHER HYDROLASES” (priority 2002, published 2008)
Peptide text beside a SMILES is read from it. * marks the point of attachment. AMC = Cc1cc(=O)oc2cc(N*)ccc12; Cbz = O=C(OCc1ccccc1)*; Boc = CC(C)(C)OC(=O)*

Experiments:
[1] = test system: hydrolases present in whole normal vaginal fluid; assay: Experiment 2: hydrolysis of substrates by whole normal vaginal fluid, visual color score; type: biochemical, human; design: key: 0: Yellow; 1: Peach; 2: Orange; 3: Light to medium pink; 4: Dark pink or red; 5: Fuchsia; 6: Purple; settings: visual 0-6 scale
Experimental: Due to the partial opacity of cells and other particulate matter in whole vaginal fluid, assays of hydrolase activity present in whole vaginal fluid were performed in 20 μL conical microwells and scored visually. The vaginal fluid from a single normal, uninfected donor was agitated to resuspend the particulate matter, and 2 μL aliquots of the vaginal fluid were mixed with 2 μL of each substrate/buffer combination. To retard evaporation from the wells, water was pipetted into the mini-tray adjacent to the wells prior to replacing the tray cover. Fifteen minutes later, 2 μL of indicator solution was added to each well. After another fifteen minutes, the color in each well was visually scored in 0.5-unit increments using the 0-6 scale presented in Table 2.1.

trichomonal hydrolases = assay: Experiment 2: hydrolysis of substrates by trichomonal hydrolases with or without NVS, absorbance 540 nm; type: biochemical, Trichomonas vaginalis; settings: absorbance at 540 nm per method; for Color Scores: Trichomonal hydrolases + NVS: 10% NVS
Experimental: Substrate solutions containing 8 mM of one of the four substrates (ZRR-MNA, BLRR-AMC, BLKR-AMC, ZKKR-AMC) in one of the two buffers (acetate, TRIS) were prepared by mixing 4 μL 100 mM substrate with 6 μL 6.3 mM L-cysteine, 14 μL 200 mM buffer and 26 μL water. Assays of trichomonal hydrolase activity, with or without the addition of NVS, were performed in 200 μL microwells. In one set of microwells, 10 μL of each substrate/buffer combination was mixed with 10 μL of undiluted trichomonal hydrolases. In a second set of microwells, 10 μL of each substrate/buffer combination was mixed with 10 μL of a mixture of 90% v/v trichomonal hydrolases and 10% NVS. Fifteen minutes later, 50 μL of indicator solution was added to each well. After another fifteen minutes, the absorbance of each solution in the wells was measured on a microtiter plate reader set on 540 nm wavelength.

SMILES: Cc1cc(=O)oc2cc(NC(=O)[C@H](CCCN=C(N)N)NC(=O)[C@H](CCCCN)NC(=O)[C@H](CC(C)C)NC(=O)OC(C)(C)C)ccc12 [BLKR-AMC, BOC-Leu-Lys-Arg-AMC] (Boc-Leu-Lys-Arg-{AMC})
- Color Scores: Whole normal vaginal fluid ([1]; pH 5 acetate): 0.5
- Color Scores: Whole normal vaginal fluid ([1]; pH 8 TRIS): 6
- Color Scores: Trichomonal hydrolases + NVS (trichomonal hydrolases; pH 5 acetate): 0.123
- Color Scores: Trichomonal hydrolases (trichomonal hydrolases; pH 5 acetate): 0.638
- Color Scores: Trichomonal hydrolases + NVS (trichomonal hydrolases; pH 8 TRIS): 0.731
- Color Scores: Trichomonal hydrolases (trichomonal hydrolases; pH 8 TRIS): 0.649

SMILES: Cc1cc(=O)oc2cc(NC(=O)[C@H](CCCNC(=N)N)NC(=O)[C@H](CCCCN)NC(=O)[C@H](CCCCN)NC(=O)OCc3ccccc3)ccc12 [ZKKR-AMC, CBZ-Lys-Lys-Arg-AMC] (Cbz-Lys-Lys-Arg-{AMC})
- Color Scores: Whole normal vaginal fluid ([1]; pH 5 acetate): 0.5
- Color Scores: Whole normal vaginal fluid ([1]; pH 8 TRIS): 2
- Color Scores: Trichomonal hydrolases + NVS (trichomonal hydrolases; pH 5 acetate): 0.099
- Color Scores: Trichomonal hydrolases (trichomonal hydrolases; pH 5 acetate): 0.225
- Color Scores: Trichomonal hydrolases + NVS (trichomonal hydrolases; pH 8 TRIS): 0.352
- Color Scores: Trichomonal hydrolases (trichomonal hydrolases; pH 8 TRIS): 0.357

SMILES: Cc1cc(=O)oc2cc(NC(=O)[C@H](CCCN=C(N)N)NC(=O)[C@H](CCCN=C(N)N)NC(=O)[C@H](CC(C)C)NC(=O)OC(C)(C)C)ccc12 [BLRR-AMC, BOC-Leu-Arg-Arg-AMC] (Boc-Leu-Arg-Arg-{AMC})
- Color Scores: Whole normal vaginal fluid ([1]; pH 5 acetate): 0.5
- Color Scores: Whole normal vaginal fluid ([1]; pH 8 TRIS): 6
- Color Scores: Trichomonal hydrolases + NVS (trichomonal hydrolases; pH 5 acetate): 0.114
- Color Scores: Trichomonal hydrolases (trichomonal hydrolases; pH 5 acetate): 0.536
- Color Scores: Trichomonal hydrolases + NVS (trichomonal hydrolases; pH 8 TRIS): 0.568
- Color Scores: Trichomonal hydrolases (trichomonal hydrolases; pH 8 TRIS): 0.463
